Consider 4 compounds from patent US20260174871A1, “THIXOTROPIC DELIVERY SYSTEMS” (UNIVERSITY OF MONTANA, priority 2019, published 2026).

The subject of assay [1] is S. aureus 13709. The assay is described as follows: Kill kinetics of ciprofloxacin with or without gels. The assay is classed as cell-based, Staphylococcus aureus. The protocol: (§1) Growth was measured by sampling media placed above the thixogel and then quantifying colony forming units (CFU's) by serial dilution.
Assay [2] deals with P. aeruginosa 27853. The assay is described as above. The class given is cell-based, Pseudomonas aeruginosa. The protocol:
as §1

Assay [3] relates to S. aureus 13709. Description: Minimum Inhibitory Concentration (MIC) of antibiotics with or without thixogel. The class given is cell-based, Staphylococcus aureus. From the text: (§2) The Minimum Inhibitory Concentration (MIC) defines the lowest antibiotic concentration that inhibits 99.9% of bacterial growth.
Assay [4] deals with P. aeruginosa 27853. Described as above. The assay is classed as cell-based, Pseudomonas aeruginosa.
Excerpt: as §2

Where [5] appears, read: ciprofloxacin 30 μg/mL loaded in HA and SF gels.

≈ marks a conversion by molar mass, not a printed value. Read-outs that look alike come from different tables or passages of the source.

Take `O=C(O)c1cn(C2CC2)c2cc(N3CCNCC3)c(F)cc2c1=O` [Ciprofloxacin, ciprofloxacin]: the inhibition at 30 µg/mL was determined as 100% with S. aureus 13709 [1] (Staphylococcus aureus, 13709, gel loaded drug, 30 μg/mL, read-out: inhibition of bacterial growth) and 100% in the assay on P. aeruginosa 27853 [2] (Pseudomonas aeruginosa, 27853, gel loaded drug, 30 μg/mL, read-out: inhibition of bacterial growth). Moreover, the “time to complete inhibition of bacterial growth” value in the assay with S. aureus 13709 [1] (setting [5]) and in the assay on P. aeruginosa 27853 [2] (setting [5]) was “around four” each time. The “inhibition of bacterial growth” value is listed as “more than 3 log10” in the assay on S. aureus 13709 [1] (gel loaded drug, 30 μg/mL) and “more than 3 log10” with P. aeruginosa 27853 [2] (gel loaded drug, 30 μg/mL).

As for `C[C@@H](O)[C@H]1C(=O)N2C(C(=O)O)=C(SCCN=CN)C[C@H]12` [Imipenem, imipenem], the MIC with S. aureus 13709 [3] (Staphylococcus aureus, 13709, S. aureus 13709, No Gel, read-out: Minimum Inhibitory Concentrations (MIC)) is 0.032 µg/mL (≈ 0.107 µM); with S. aureus 13709 [3] (Staphylococcus aureus, 13709, S. aureus 13709, antibiotic delivered in HA thixogel, read-out: Minimum Inhibitory Concentrations (MIC)), less than 0.032 µg/mL; in the assay on S. aureus 13709 [3] (Staphylococcus aureus, 13709, S. aureus 13709, antibiotic delivered in SF thixogel, read-out: Minimum Inhibitory Concentrations (MIC)) it was 0.125 µg/mL (≈ 0.418 µM); with P. aeruginosa 27853 [4] (Pseudomonas aeruginosa, 27853, P. aeruginosa 27853, No Gel, read-out: Minimum Inhibitory Concentrations (MIC)) it was 2 µg/mL (≈ 6.68 µM); in the assay with P. aeruginosa 27853 [4] (Pseudomonas aeruginosa, 27853, P. aeruginosa 27853, antibiotic delivered in HA thixogel, read-out: Minimum Inhibitory Concentrations (MIC)), 4 µg/mL (≈ 13.4 µM); in the assay with P. aeruginosa 27853 [4] (Pseudomonas aeruginosa, 27853, P. aeruginosa 27853, antibiotic delivered in SF thixogel, read-out: Minimum Inhibitory Concentrations (MIC)) it was more than 4 µg/mL.

Take `CN[C@H](CC(C)C)C(=O)N[C@H]1C(=O)N[C@@H](CC(N)=O)C(=O)N[C@H]2C(=O)N[C@H]3C(=O)N[C@H](C(=O)N[C@H](C(=O)O)c4cc(O)cc(O)c4-c4cc3ccc4O)[C@H](O)c3ccc(c(Cl)c3)Oc3cc2cc(c3O[C@@H]2O[C@H](CO)[C@@H](O)[C@H](O)[C@H]2O[C@H]2C[C@](C)(N)[C@H](O)[C@H](C)O2)Oc2ccc(cc2Cl)[C@H]1O` [Vancomycin, vancomycin]: the “potency / coverage of both pathogenic bacteria” value in the assay on S. aureus 13709 [3] (S. aureus (Gram positive)) and in the assay on P. aeruginosa 27853 [4] (P. aeruginosa (Gram negative)) was “did not give coverage of both” throughout. For the same compound, the MIC is 2 µg/mL (≈ 1.38 µM) with S. aureus 13709 [3] (Staphylococcus aureus, 13709, read-out: Minimum Inhibitory Concentrations (MIC), S. aureus 13709, No Gel); 16 µg/mL (≈ 11 µM) in the assay with S. aureus 13709 [3] (Staphylococcus aureus, 13709, read-out: Minimum Inhibitory Concentrations (MIC), S. aureus 13709, antibiotic delivered in HA thixogel); 4 µg/mL (≈ 2.76 µM) in the assay with S. aureus 13709 [3] (Staphylococcus aureus, 13709, read-out: Minimum Inhibitory Concentrations (MIC), S. aureus 13709, antibiotic delivered in SF thixogel); more than 4 µg/mL in the assay on P. aeruginosa 27853 [4] (Pseudomonas aeruginosa, 27853, read-out: Minimum Inhibitory Concentrations (MIC), P. aeruginosa 27853, No Gel); more than 32 µg/mL with P. aeruginosa 27853 [4] (Pseudomonas aeruginosa, 27853, read-out: Minimum Inhibitory Concentrations (MIC), P. aeruginosa 27853, antibiotic delivered in HA thixogel); more than 32 µg/mL in the assay on P. aeruginosa 27853 [4] (Pseudomonas aeruginosa, 27853, read-out: Minimum Inhibitory Concentrations (MIC), P. aeruginosa 27853, antibiotic delivered in SF thixogel).

As for gentamycin, the “effect of the gels (SF and HA) upon potency” value with S. aureus 13709 [3] (S. aureus) and with P. aeruginosa 27853 [4] (P. aeruginosa) was “deleterious effect upon potency” each time. Further, the “Minimum Inhibitory Concentrations (MIC)” value with S. aureus 13709 [3] (S. aureus 13709, No Gel) amounted to 1 µg/mL; in the assay with S. aureus 13709 [3] (S. aureus 13709, antibiotic delivered in HA thixogel), 32 µg/mL; in the assay on S. aureus 13709 [3] (S. aureus 13709, antibiotic delivered in SF thixogel), 8 µg/mL; with P. aeruginosa 27853 [4] (P. aeruginosa 27853, No Gel) it was 2 µg/mL; in the assay on P. aeruginosa 27853 [4] (P. aeruginosa 27853, antibiotic delivered in HA thixogel) it was 32 µg/mL; with P. aeruginosa 27853 [4] (P. aeruginosa 27853, antibiotic delivered in SF thixogel), 32 µg/mL.

The inhibition is the relative decrease from the control value, in per cent.
